Our source for the remaining binding values is publication PMC6437697 (Journal of Medicinal Chemistry, 2019).

The structures appear in SMILES notation.

Holding throughout (assay): KINOMEscan
Common to all, as to type: binding
Holding throughout (conditions): read-out: % control activity remaining

Experiment [1] addresses T1, ABL1(T315I)-nonphosphorylated (Homo sapiens, UniProt P00519, T315I).
T1 construct: purchased Eurofins DiscoverX KINOMEscan

For the next experiment, the target named is T2, AURKC (Homo sapiens, UniProt Q9UQB9).
T2 construct: purchased Eurofins DiscoverX KINOMEscan
T2 sequence (Q9UQB9 1-309): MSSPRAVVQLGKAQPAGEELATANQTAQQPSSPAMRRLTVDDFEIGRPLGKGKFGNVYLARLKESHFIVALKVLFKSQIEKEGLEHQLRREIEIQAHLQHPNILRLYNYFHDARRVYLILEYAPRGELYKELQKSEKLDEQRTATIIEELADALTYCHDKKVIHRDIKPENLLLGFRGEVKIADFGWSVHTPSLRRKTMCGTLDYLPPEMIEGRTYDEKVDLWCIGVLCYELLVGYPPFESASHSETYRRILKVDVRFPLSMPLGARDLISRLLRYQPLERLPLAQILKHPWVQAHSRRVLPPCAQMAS

A further experiment has as its target T3, BUB1 (Homo sapiens, UniProt O43683).
T3 construct: purchased Eurofins DiscoverX KINOMEscan

Another experiment concerns the target T4, CAMK4 (Homo sapiens, UniProt Q16566).
T4 construct: purchased Eurofins DiscoverX KINOMEscan

Another experiment has as its target T5, FLT3 (Homo sapiens, UniProt P36888).
T5 construct: purchased Eurofins DiscoverX KINOMEscan
T5 sequence (P36888 27-993): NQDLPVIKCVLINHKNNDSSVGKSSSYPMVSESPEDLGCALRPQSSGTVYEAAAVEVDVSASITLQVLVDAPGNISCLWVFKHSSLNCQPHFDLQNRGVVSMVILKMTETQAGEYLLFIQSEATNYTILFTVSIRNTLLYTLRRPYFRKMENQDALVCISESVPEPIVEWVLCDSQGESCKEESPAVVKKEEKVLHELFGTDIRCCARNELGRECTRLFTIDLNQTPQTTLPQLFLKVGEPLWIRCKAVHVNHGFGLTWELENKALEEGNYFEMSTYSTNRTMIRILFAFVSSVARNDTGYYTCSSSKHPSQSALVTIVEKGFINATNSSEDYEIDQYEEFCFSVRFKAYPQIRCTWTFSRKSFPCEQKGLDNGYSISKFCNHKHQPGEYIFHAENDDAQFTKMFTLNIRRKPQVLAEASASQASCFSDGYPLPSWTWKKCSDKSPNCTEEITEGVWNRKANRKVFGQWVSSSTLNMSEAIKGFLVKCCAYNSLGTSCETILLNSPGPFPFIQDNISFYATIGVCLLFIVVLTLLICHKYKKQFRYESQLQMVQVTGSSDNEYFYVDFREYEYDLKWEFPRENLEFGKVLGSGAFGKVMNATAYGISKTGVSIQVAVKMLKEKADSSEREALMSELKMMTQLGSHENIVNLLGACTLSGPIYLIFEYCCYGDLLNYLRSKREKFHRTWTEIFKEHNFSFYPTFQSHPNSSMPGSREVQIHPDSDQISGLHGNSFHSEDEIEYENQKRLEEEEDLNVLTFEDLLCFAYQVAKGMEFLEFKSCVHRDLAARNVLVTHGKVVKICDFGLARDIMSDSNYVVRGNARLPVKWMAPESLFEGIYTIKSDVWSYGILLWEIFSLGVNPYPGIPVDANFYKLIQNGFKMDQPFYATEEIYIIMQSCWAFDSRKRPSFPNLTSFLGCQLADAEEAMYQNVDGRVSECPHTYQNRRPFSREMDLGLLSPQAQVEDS

The next experiment deals with T6, ITK (Homo sapiens, UniProt Q08881).
T6 construct: purchased Eurofins DiscoverX KINOMEscan
T6 sequence (Q08881 1-620): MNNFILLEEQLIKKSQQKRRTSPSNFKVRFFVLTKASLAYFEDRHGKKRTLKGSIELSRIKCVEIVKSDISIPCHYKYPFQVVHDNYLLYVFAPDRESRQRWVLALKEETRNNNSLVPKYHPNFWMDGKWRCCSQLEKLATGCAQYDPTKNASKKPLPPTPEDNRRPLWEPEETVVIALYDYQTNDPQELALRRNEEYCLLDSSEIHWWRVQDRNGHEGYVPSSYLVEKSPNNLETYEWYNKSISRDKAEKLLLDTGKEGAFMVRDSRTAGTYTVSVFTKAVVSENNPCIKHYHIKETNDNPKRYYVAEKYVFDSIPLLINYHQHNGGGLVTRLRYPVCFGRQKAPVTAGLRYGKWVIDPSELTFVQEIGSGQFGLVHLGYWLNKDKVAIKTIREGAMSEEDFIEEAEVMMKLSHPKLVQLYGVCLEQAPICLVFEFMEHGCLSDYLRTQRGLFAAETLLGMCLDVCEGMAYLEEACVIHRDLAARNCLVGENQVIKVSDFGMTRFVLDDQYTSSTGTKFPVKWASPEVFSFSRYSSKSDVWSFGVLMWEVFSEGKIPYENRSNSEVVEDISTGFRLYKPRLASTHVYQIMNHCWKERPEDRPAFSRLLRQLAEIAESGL

The target in the next experiment is T7, MET (Homo sapiens, UniProt P08581).
T7 construct: purchased Eurofins DiscoverX KINOMEscan

In the next experiment the target is T8, NEK3 (Homo sapiens, UniProt P51956).
T8 construct: purchased Eurofins DiscoverX KINOMEscan
T8 sequence (P51956 1-506): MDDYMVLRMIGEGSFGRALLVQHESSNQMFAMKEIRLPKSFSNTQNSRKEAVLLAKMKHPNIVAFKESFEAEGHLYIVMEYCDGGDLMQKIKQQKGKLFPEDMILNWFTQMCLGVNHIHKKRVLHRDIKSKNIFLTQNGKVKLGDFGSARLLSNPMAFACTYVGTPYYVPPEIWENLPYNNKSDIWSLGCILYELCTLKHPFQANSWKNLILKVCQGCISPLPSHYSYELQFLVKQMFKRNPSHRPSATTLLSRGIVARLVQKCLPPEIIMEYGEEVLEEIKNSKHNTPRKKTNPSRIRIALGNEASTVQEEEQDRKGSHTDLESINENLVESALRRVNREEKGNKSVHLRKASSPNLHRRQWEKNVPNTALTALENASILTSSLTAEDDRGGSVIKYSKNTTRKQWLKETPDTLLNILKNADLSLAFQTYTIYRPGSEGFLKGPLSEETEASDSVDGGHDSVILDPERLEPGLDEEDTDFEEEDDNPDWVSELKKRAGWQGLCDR

T7 sequence (P08581 25-1390): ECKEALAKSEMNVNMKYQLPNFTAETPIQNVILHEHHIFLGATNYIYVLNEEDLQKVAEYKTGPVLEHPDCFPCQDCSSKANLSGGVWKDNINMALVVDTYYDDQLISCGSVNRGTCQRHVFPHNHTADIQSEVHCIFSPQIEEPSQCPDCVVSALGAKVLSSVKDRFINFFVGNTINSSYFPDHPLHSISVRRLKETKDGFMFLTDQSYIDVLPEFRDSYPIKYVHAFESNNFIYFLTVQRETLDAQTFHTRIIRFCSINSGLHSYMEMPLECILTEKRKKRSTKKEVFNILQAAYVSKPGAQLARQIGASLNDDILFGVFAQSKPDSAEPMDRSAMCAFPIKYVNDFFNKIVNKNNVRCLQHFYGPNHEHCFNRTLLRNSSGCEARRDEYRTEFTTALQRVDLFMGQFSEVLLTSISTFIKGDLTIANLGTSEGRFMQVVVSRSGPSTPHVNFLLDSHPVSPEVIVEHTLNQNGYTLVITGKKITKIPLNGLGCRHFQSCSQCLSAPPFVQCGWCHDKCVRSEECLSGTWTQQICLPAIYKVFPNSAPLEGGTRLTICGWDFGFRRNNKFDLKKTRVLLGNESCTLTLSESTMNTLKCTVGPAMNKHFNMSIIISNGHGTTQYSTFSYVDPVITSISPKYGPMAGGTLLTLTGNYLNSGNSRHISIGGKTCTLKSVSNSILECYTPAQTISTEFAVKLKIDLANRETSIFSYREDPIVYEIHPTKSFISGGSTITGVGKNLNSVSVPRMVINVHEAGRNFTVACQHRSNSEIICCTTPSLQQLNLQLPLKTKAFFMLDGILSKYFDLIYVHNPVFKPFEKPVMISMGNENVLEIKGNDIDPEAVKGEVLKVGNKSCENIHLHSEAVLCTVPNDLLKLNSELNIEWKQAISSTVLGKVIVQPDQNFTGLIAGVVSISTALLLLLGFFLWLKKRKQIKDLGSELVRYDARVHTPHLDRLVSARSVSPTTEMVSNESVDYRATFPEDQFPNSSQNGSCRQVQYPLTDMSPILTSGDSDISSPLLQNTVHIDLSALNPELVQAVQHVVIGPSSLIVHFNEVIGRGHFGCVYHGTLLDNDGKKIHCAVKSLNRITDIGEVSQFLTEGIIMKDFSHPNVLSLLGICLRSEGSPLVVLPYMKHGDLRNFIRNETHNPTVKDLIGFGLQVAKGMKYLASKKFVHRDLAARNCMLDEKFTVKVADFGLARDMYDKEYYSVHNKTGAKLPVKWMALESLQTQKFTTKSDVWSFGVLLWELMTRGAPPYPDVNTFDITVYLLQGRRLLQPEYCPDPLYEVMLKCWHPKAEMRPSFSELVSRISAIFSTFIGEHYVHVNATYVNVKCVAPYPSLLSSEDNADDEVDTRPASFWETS
T3 sequence (O43683 whole entry): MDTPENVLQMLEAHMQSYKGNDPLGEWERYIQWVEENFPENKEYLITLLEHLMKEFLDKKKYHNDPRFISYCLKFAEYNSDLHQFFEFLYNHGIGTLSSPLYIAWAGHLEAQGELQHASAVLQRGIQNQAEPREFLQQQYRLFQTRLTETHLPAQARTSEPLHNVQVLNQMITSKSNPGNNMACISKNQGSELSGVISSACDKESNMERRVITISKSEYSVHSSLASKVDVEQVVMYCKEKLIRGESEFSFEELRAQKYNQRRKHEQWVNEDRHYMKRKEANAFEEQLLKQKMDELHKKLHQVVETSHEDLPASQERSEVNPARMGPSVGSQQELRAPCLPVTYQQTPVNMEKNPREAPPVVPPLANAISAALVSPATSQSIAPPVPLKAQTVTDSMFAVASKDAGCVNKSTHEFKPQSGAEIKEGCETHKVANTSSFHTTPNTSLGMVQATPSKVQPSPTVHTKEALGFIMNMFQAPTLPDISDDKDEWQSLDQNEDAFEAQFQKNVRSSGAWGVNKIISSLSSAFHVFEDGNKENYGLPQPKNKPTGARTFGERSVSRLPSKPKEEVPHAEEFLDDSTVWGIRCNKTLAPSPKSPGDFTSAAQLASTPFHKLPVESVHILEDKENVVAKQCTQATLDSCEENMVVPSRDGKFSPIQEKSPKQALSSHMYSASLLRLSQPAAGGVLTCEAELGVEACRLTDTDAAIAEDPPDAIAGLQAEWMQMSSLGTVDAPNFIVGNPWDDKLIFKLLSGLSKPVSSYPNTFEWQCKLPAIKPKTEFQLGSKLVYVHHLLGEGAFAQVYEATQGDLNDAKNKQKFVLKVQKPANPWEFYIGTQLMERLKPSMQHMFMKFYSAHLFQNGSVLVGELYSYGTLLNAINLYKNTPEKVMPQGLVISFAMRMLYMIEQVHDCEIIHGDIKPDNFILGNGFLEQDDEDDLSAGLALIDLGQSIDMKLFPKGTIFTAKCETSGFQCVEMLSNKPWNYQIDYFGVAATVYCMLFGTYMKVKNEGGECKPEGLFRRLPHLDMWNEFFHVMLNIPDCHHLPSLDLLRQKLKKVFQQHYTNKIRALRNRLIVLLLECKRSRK
T4 sequence (Q16566 whole entry, looked up): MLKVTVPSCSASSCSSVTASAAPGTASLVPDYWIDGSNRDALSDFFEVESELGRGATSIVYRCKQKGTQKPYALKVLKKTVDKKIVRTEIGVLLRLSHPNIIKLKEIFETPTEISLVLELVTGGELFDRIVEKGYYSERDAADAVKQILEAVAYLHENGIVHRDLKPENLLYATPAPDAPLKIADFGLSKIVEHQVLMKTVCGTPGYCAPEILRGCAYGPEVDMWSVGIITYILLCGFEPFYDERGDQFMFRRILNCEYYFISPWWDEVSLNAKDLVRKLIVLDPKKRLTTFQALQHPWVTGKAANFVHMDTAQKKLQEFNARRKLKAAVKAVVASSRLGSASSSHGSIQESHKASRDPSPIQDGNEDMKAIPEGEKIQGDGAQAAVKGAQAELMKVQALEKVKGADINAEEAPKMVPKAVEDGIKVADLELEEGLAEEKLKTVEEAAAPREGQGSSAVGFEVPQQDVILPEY

For the compound `Clc1cc(NCC2CC2)c2ncc(-c3ccc4[nH]ncc4c3)n2n1` [compound 2, 6-Chloro-N-(cyclopropylmethyl)-3-(1H-indazol-5-yl)imidazo[1,2-b]pyridazin-8-amine], the remaining binding at 1 µM came out at 76% in experiment [1]; 92% on AURKC; 83% on BUB1; 100% at CAMK4; 2.5% on FLT3; 92% on ITK. For the same compound, the remaining binding at 1 µM came out at 90% on MET and 93% at NEK3.

`O=C(CN1CCOCC1)N[C@H]1CC[C@H](Nc2cc(Cl)nn3c(-c4ccc5[nH]ncc5c4)cnc23)CC1` [compound 26]: the remaining binding at 1 µM is 38% in experiment [1]; 58% on AURKC; 58% on BUB1; 100% on CAMK4; 3% at FLT3; 84% at ITK. In addition, the remaining binding at 1 µM on MET amounted to 100%; on NEK3, 88%.

On to `CN1CCC(CNc2cc(Cl)nn3c(-c4cc5nc(Nc6ccccc6)[nH]c5cc4F)cnc23)CC1` [compound 31, 6-Chloro-3-(6-fluoro-2-(phenylamino)-1H-benzo[d]imidazol-5-yl)-N-((1-methylpiperidin-4-yl)methyl)imidazo[1,2-b]pyridazin-8-amine], for which the remaining binding at 1 µM in experiment [1] turned out to be 71%; at AURKC it was 92%; on BUB1, 59%; on CAMK4, 100%; on FLT3, 83%; on ITK it was 91%. The remaining binding at 1 µM on MET turned out to be 97%; at NEK3 it was 100%.
